Laboratory results published in patent US8658661B2, “Oxadiazole inhibitors of leukotriene production” (Boehringer Ingelheim International GmbH, priority 2010, dated 2014).
pIC50: −log10 of the molar value.

Assays:
[1] = tested on: synthesis of LTB4 in human whole blood; test: Human whole blood assay (inhibition of LTB4 synthesis, calcimycin stimulated); type: cell-based; details: heparinized human whole blood, calcimycin 20 μM, plasma LTB4
Procedure, shortened: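 Heparinized human whole blood was preincubated with compound for 15 min at 37° C, then stimulated with calcimycin (20 μM final, in PBS pH 7.4) for a further 30 min at 37° C. Plasma LTB4 was quantified by antibody-based homogeneous time-resolved fluorescence.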

[2] = target: T1, recombinant human FLAP protein (Homo sapiens, UniProt P20292); test: FLAP binding assay (SPA, displacement of [125I]L-691,831); details: membranes of sf9 cells expressing recombinant human FLAP; [125I]L-691,831 probe; read-out: FLAP binding IC50
T1 construct: made in house; host or cells: Sf9 insect cells (100,000×g membrane pellet used)
T1 sequence (P20292 1-161): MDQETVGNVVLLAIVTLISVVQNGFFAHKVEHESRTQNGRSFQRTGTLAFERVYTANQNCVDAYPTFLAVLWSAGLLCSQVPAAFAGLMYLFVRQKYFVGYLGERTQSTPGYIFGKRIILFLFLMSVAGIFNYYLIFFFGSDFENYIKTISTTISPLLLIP
Procedure, shortened: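 Membranes from sf9 cells expressing human FLAP in pH 7.5 Tris buffer (MgCl2, EDTA, PMSF). Non-specific binding defined with 10 μM cold L-691,831.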

| Compound | pIC50 [1] | pIC50 [2] |
| --- | --- | --- |
| CNC(=O)Cn1cc(-c2nc(C(C)(c3ccc(-c4cnc(N)nc4)cc3)C(C)C)no2)cn1 (stereo not shown) [Example 142, 2-[4-(3-{2-[4-(2-aminopyrimidin-5-yl)phenyl]-3-methylbutan-2-yl}-1,2,4-oxadiazol-5-yl)-1H-pyrazol-1-yl]-N-methylacetamide] | 7.23 | 8.96 |
| CCC(C)(c1ccc(-c2cnc(N)nc2)cc1)c1noc(-c2ccc(C)nc2)n1 (stereo not shown) [Example 143, 5-(4-{2-[5-(6-methylpyridin-3-yl)-1,2,4-oxadiazol-3-yl]butan-2-yl}phenyl)pyrimidin-2-amine] | 6.44 | 8.39 |
| CC(C)C(C)(c1ccc(-c2cnc(N)nc2)cc1)c1noc(-c2ccnnc2)n1 (stereo not shown) [Example 147, 5-(4-{3-methyl-2-[5-(pyridazin-4-yl)-1,2,4-oxadiazol-3-yl]butan-2-yl}phenyl)pyrimidin-2-amine] | 7.07 | 8.57 |
| CC(C)C(C)(c1ccc(-c2cnc(N)nc2)cc1)c1noc(-c2cccc(S(C)(=O)=O)c2)n1 (stereo not shown) [Example 148, 5-[4-(3-methyl-2-{5-[3-(methylsulfonyl)phenyl]-1,2,4-oxadiazol-3-yl}butan-2-yl)phenyl]pyrimidin-2-amine] | 6.21 | 7.85 |
| CC(C)C(C)(c1ccc(-c2cnc(N)nc2)cc1)c1noc(-c2ccc(N)nc2)n1 (stereo not shown) [Example 151, 5-(4-{2-[5-(6-aminopyridin-3-yl)-1,2,4-oxadiazol-3-yl]-3-methylbutan-2-yl}phenyl)pyrimidin-2-amine] | 7.00 | 8.64 |
| Cc1nc(C)c(-c2nc(C(C)(c3ccc(-c4cnc(N)nc4)cc3)C(C)C)no2)s1 (stereo not shown) [Example 153, 5-(4-{2-[5-(2,4-dimethyl-1,3-thiazol-5-yl)-1,2,4-oxadiazol-3-yl]-3-methylbutan-2-yl}phenyl)pyrimidin-2-amine] | 6.74 | 8.34 |
| COc1ncc(-c2nc(C(C)(c3ccc(-c4cnc(N)nc4)cc3)C(C)C)no2)cn1 (stereo not shown) [Example 155, 5-(4-{2-[5-(2-methoxypyrimidin-5-yl)-1,2,4-oxadiazol-3-yl]-3-methylbutan-2-yl}phenyl)pyrimidin-2-amine] | 7.09 | 8.72 |
| Cc1ccc(-c2nc(C(C)(c3ccc(-c4cnc(N)nc4)cc3)C(C)C)no2)c(O)n1 (stereo not shown) [Example 157, 3-(3-{2-[4-(2-aminopyrimidin-5-yl)phenyl]-3-methylbutan-2-yl}-1,2,4-oxadiazol-5-yl)-6-methylpyridin-2-ol] | 6.12 | 8.48 |
| COCCn1cc(-c2nc(C(C)(c3ccc(-c4cnc(N)nc4)cc3)C(C)C)no2)cn1 (stereo not shown) [Example 158, 5-[4-(2-{5-[1-(2-methoxyethyl)-1H-pyrazol-4-yl]-1,2,4-oxadiazol-3-yl}-3-methylbutan-2-yl)phenyl]pyrimidin-2-amine] | 7.26 | 8.47 |
| CC(C)C(C)(c1ccc(-c2cnc(N)nc2)cc1)c1noc(-c2cnn(CC(C)(C)O)c2)n1 (stereo not shown) [Example 159, 1-[4-(3-{2-[4-(2-aminopyrimidin-5-yl)phenyl]-3-methylbutan-2-yl}-1,2,4-oxadiazol-5-yl)-1H-pyrazol-1-yl]-2-methylpropan-2-ol] | 7.08 | 8.34 |
| CC(C)C(C)(c1ccc(-c2cnc(N)nc2)cc1)c1noc(-c2cnn(C3COC3)c2)n1 (stereo not shown) [Example 161, 5-[4-(3-methyl-2-{5-[1-(oxetan-3-yl)-1H-pyrazol-4-yl]-1,2,4-oxadiazol-3-yl}butan-2-yl)phenyl]pyrimidin-2-amine] | 7.44 | 8.70 |
| COCCNc1cnc(-c2nc(C(C)(c3ccc(-c4cnc(N)nc4)cc3)C(C)C)no2)cn1 (stereo not shown) [Example 162, 5-{4-[2-(5-{5-[(2-methoxyethyl)amino]pyrazin-2-yl}-1,2,4-oxadiazol-3-yl)-3-methylbutan-2-yl]phenyl}pyrimidin-2-amine] | 7.39 | 8.64 |
| CC(C)C(C)(c1ccc(-c2cnc(N)nc2)cc1)c1noc(-c2cnc(N3CCN(C)CC3)cn2)n1 (stereo not shown) [Example 163, 5-[4-(3-methyl-2-{5-[5-(4-methylpiperazin-1-yl)pyrazin-2-yl]-1,2,4-oxadiazol-3-yl}butan-2-yl)phenyl]pyrimidin-2-amine] | 7.52 | 9.13 |
| CC(C)C(C)(c1ccc(-c2cnc(N)nc2)cc1)c1noc(-c2cnn(CC(C)(C)C(=O)O)c2)n1 (stereo not shown) [Example 164, 3-[4-(3-{2-[4-(2-aminopyrimidin-5-yl)phenyl]-3-methylbutan-2-yl}-1,2,4-oxadiazol-5-yl)-1H-pyrazol-1-yl]-2,2-dimethylpropanoic acid] | 5.57 | 8.85 |
| CC(C)C(C)(c1ccc(-c2cnc(N)nc2)cc1)c1noc(-c2cccc(=O)n2C)n1 (stereo not shown) [Example 165, 6-(3-{2-[4-(2-aminopyrimidin-5-yl)phenyl]-3-methylbutan-2-yl}-1,2,4-oxadiazol-5-yl)-1-methylpyridin-2(1H)-one] | 7.05 | 8.68 |
| CC(C)C(C)(c1ccc(-c2cnc(N)nc2)cc1)c1noc(C2CCCC(=O)N2C)n1 (stereo not shown) [Example 166, 6-(3-{2-[4-(2-aminopyrimidin-5-yl)phenyl]-3-methylbutan-2-yl}-1,2,4-oxadiazol-5-yl)-1-methylpiperidin-2-one] | 5.62 | 7.59 |

Now from value to compound:

| pIC50 [1] | pIC50 [2] | Compound |
| --- | --- | --- |
| 6.12 | 7.82 | CC(C)C(C)(c1ccc(-c2cnc(N)nc2)cc1)c1noc(C2CCOCC2)n1 (stereo not shown) [Example 138, 5-(4-{3-methyl-2-[5-(tetrahydro-2H-pyran-4-yl)-1,2,4-oxadiazol-3-yl]butan-2-yl}phenyl)pyrimidin-2-amine] |
| 6.15 | 8.39 | Cc1ncoc1-c1nc(C(C)(c2ccc(-c3cnc(N)nc3)cc2)C(C)C)no1 (stereo not shown) [Example 140, 5-(4-{3-methyl-2-[5-(4-methyl-1,3-oxazol-5-yl)-1,2,4-oxadiazol-3-yl]butan-2-yl}phenyl)pyrimidin-2-amine] |
| 6.28 | 8.82 | Cc1ncsc1-c1nc(C(C)(c2ccc(-c3cnc(N)nc3)cc2)C(C)C)no1 (stereo not shown) [Example 141, 5-(4-{3-methyl-2-[5-(4-methyl-1,3-thiazol-5-yl)-1,2,4-oxadiazol-3-yl]butan-2-yl}phenyl)pyrimidin-2-amine] |
| 7.59 | 8.51 | CC(C)C(C)(c1ccc(-c2cnc(N)nc2)cc1)c1noc(-c2cnn(CCN3CCOCC3)c2)n1 (stereo not shown) [Example 144, 5-{4-[3-methyl-2-(5-{1-[2-(morpholin-4-yl)ethyl]-1H-pyrazol-4-yl}-1,2,4-oxadiazol-3-yl)butan-2-yl]phenyl}pyrimidin-2-amine] |
| 5.60 | 7.77 | CC(C)C(C)(c1ccc(-c2cnc(N)nc2)cc1)c1noc(C2(C(=O)O)CCCCC2)n1 (stereo not shown) [Example 145, 1-(3-{2-[4-(2-aminopyrimidin-5-yl)phenyl]-3-methylbutan-2-yl}-1,2,4-oxadiazol-5-yl)cyclohexanecarboxylic acid] |
| 7.34 | 8.89 | CC(C)C(C)(c1ccc(-c2cnc(N)nc2)cc1)c1noc(-c2cn[nH]c2)n1 (stereo not shown) [Example 146, 5-(4-{3-methyl-2-[5-(1H-pyrazol-4-yl)-1,2,4-oxadiazol-3-yl]butan-2-yl}phenyl)pyrimidin-2-amine] |
| 5.74 | 6.48 | CC(C)C(C)(c1ccc(-c2cnc(N)nc2)cc1)c1noc(C2CCN(C)CC2)n1 (stereo not shown) [Example 150, 5-(4-{3-methyl-2-[5-(1-methylpiperidin-4-yl)-1,2,4-oxadiazol-3-yl]butan-2-yl}phenyl)pyrimidin-2-amine] |
| 6.57 | 8.48 | Cc1ncc(-c2nc(C(C)(c3ccc(-c4cnc(N)nc4)cc3)C(C)C)no2)cn1 (stereo not shown) [Example 152, 5-(4-{3-methyl-2-[5-(2-methylpyrimidin-5-yl)-1,2,4-oxadiazol-3-yl]butan-2-yl}phenyl)pyrimidin-2-amine] |
| < 5.30 | 8.05 | CC(C)C(C)(c1ccc(-c2cnc(N)nc2)cc1)c1noc(-c2cnn(C(C)(C)C(=O)O)c2)n1 (stereo not shown) [Example 160, 2-[4-(3-{2-[4-(2-aminopyrimidin-5-yl)phenyl]-3-methylbutan-2-yl}-1,2,4-oxadiazol-5-yl)-1H-pyrazol-1-yl]-2-methylpropanoic acid] |
| 5.37 | 7.34 | CC(C)C(C)(c1ccc(-c2cnc(N)nc2)cc1)c1noc(C2CCCC(=O)N2)n1 (stereo not shown) [Example 167, 6-(3-{2-[4-(2-aminopyrimidin-5-yl)phenyl]-3-methylbutan-2-yl}-1,2,4-oxadiazol-5-yl)piperidin-2-one] |
| 6.41 | 7.68 | CC(C)C(C)(c1ccc(-c2cnc(N)nc2)cc1)c1noc(N2CCS(=O)(=O)CC2)n1 (stereo not shown) [Example 168, 5-(4-{1-[5-(1,1-Dioxo-1lambda6-thiomorpholin-4-yl)-[1,2,4]oxadiazol-3-yl]-1,2-dimethyl-propyl}-phenyl)-pyrimidin-2-ylamine] |
| 6.43 | 7.85 | CC(=O)N1CCN(c2nc(C(C)(c3ccc(-c4cnc(N)nc4)cc3)C(C)C)no2)CC1 (stereo not shown) [Example 169, 1-[4-(3-{1-[4-(2-Amino-pyrimidin-5-yl)-phenyl]-1,2-dimethyl-propyl}-[1,2,4]oxadiazol-5-yl)-piperazin-1-yl]-ethanone] |
| 6.51 | 7.85 | CC(C)C(C)(c1ccc(-c2cnc(N)nc2)cc1)c1noc(N2CCN(S(C)(=O)=O)CC2)n1 (stereo not shown) [Example 170, 5-(4-{1-[5-(4-Methanesulfonyl-piperazin-1-yl)-[1,2,4]oxadiazol-3-yl]-1,2-dimethyl-propyl}-phenyl)-pyrimidin-2-ylamine] |
